Here are results for 21 compounds from patent US20240343681A1, “MOLECULES HAVING PESTICIDAL UTILITY AND INTERMEDIATES AND PROCESSES RELATED THERETO” (priority 2021, published 2024).

Molecules are shown by their SMILES.

One assay has as its system Beet Armyworm (Spodoptera exigua, LAPHEG) second instar larva. In words: Bioassay on beet armyworm (BAW), 128-well diet tray assay. To be noted: 50 μg/cm^2 on artificial diet, 25° C., five days. Type of assay: in vivo. On the procedure: Example A: Bioassays on Beet Armyworm (Spodoptera exigua, LAPHEG) (“BAW”) and Cabbage Looper (Trichoplusia ni, TRIPNI) (“CL”)
Bioassays on BAW were conducted using a 128-well diet tray assay. One second instar BAW larva was placed in each well (8 wells total) of the diet tray that had been previously filled with 1 mL of artificial diet to which 50 μg/cm^2 of the test molecule (dissolved in 50 μL of 90:10 acetone-water mixture) had been applied (to each of eight wells) and then allowed to dry. Trays were covered with a clear self-adhesive cover, vented to allow gas exchange, and held at 25° C., 14:10 light-dark for five days. Percent mortality was recorded for the larvae in each well; activity in the eight wells was then averaged.
As to `COCC(=O)Nc1cccc(NC(=O)[C@H]2[C@H](c3cc(Cl)cc(Cl)c3)C2(Cl)Cl)c1` (racemic) [F4, trans-rac-2,2-Dichloro-3-(3,5-dichlorophenyl)-N-(3-(2-methoxyacetamido)phenyl)cyclopropane-1-carboxamide], the “activity against BAW (percent mortality, averaged over eight wells)” value is “exhibited activity”.
Same read-out and setting: to `O=C(CCC(F)(F)F)Nc1cc(NC(=O)[C@H]2[C@H](c3cc(Cl)cc(Cl)c3)C2(Cl)Cl)ccc1Cl` (racemic) [F7, trans-rac-2,2-dichloro-N-(4-chloro-3-(4,4,4-trifluorobutanamido)phenyl)-3-(3,5-dichlorophenyl)cyclopropane-1-carboxamide] belongs “exhibited activity”; to `O=C(Nc1cc(NC(=O)[C@H]2[C@H](c3cc(Cl)cc(Cl)c3)C2(Cl)Cl)ccc1Cl)c1c(F)cccc1F` (racemic) [F25, trans-rac-N-(2-Chloro-5-(2,2-dichloro-3-(3,5-dichlorophenyl)cyclopropane-1-carboxamido)phenyl)-2,6-difluorobenzamide], “exhibited activity”; to `Cc1cc(C#N)ccc1C(=O)N(C)c1cc(NC(=O)[C@H]2[C@H](c3cc(Cl)cc(Cl)c3)C2(Cl)Cl)ccc1Cl` (racemic) [F93, trans-rac-N-(2-Chloro-5-(2,2-dichloro-3-(3,5-dichlorophenyl)cyclopropane-1-carboxamido)phenyl)-4-cyano-N,2-dimethylbenzamide], “exhibited activity”.
As for `CN(C(=O)c1cc(F)cc(F)c1)c1cc(NC(=O)[C@H]2[C@H](c3cc(Cl)cc(Cl)c3)C2(Cl)Cl)ccc1Cl` (racemic) [F94, trans-rac-N-(2-Chloro-5-(2,2-dichloro-3-(3,5-dichlorophenyl)cyclopropane-1-carboxamido)phenyl)-3,5-difluoro-N-methylbenzamide], the “activity against BAW (percent mortality, averaged over eight wells)” value is recorded as “exhibited activity”.
Still for that read-out and setting: next, `O=C(COCC(F)(F)F)Nc1ccc(C(=O)Nc2cc(NC(=O)[C@H]3[C@H](c4ccc(F)c(C(F)(F)F)c4)C3(Cl)Cl)ccc2Cl)c(F)c1` (racemic) [F119, trans-rac-N-(2-Chloro-5-(2,2-dichloro-3-(4-fluoro-3-(trifluoromethyl)phenyl)cyclopropane-1-carboxamido)phenyl)-2-fluoro-4-(2-(2,2,2-trifluoroethoxy)acetamido)benzamide]: “exhibited activity”.
In the case of `O=C(CCC(F)(F)F)Nc1ccc(C(=O)Nc2cc(NC(=O)[C@H]3[C@H](c4ccc(F)c(C(F)(F)F)c4)C3(Cl)Cl)ccc2Cl)c(F)c1` (racemic) [F120, trans-rac-N-(2-Chloro-5-(2,2-dichloro-3-(4-fluoro-3-(trifluoromethyl)phenyl)cyclopropane-1-carboxamido)phenyl)-2-fluoro-4-(4,4,4-trifluorobutanamido)benzamide], the “activity against BAW (percent mortality, averaged over eight wells)” value was “exhibited activity”.
Consider `O=C(CSC(F)(F)F)Nc1ccc(C(=O)Nc2cc(NC(=O)[C@H]3[C@H](c4ccc(F)c(C(F)(F)F)c4)C3(Cl)Cl)ccc2Cl)c(F)c1` (racemic) [F121, trans-rac-N-(2-Chloro-5-(2,2-dichloro-3-(4-fluoro-3-(trifluoromethyl)phenyl)cyclopropane-1-carboxamido)phenyl)-2-fluoro-4-(2-((trifluoromethyl)thio)acetamido)benzamide], for which the “activity against BAW (percent mortality, averaged over eight wells)” value is “exhibited activity”.
The same measure, in the same setting: next, `CCOC(C)C(=O)Nc1c(F)ccc(NC(=O)[C@H]2[C@H](c3cc(Cl)c(Cl)c(Cl)c3)C2(Cl)Cl)c1F` (stereo partly drawn) [F12, (1R,3R)-2,2-Dichloro-N-(3-(2-ethoxypropanamido)-2,4-difluorophenyl)-3-(3,4,5-trichlorophenyl)cyclopropane-1-carboxamide]: “exhibited activity”; `O=C(Nc1ccc(F)c(NC(=O)C(F)(F)C(F)(F)C(F)(F)F)c1F)[C@H]1[C@H](c2cc(Cl)c(Cl)c(Cl)c2)C1(Cl)Cl` [F13, (1R,3R)-2,2-Dichloro-N-(2,4-difluoro-3-(2,2,3,3,4,4,4-heptafluorobutanamido)phenyl)-3-(3,4,5-trichlorophenyl)cyclopropane-1-carboxamide]: “exhibited activity”.
In the case of `Cc1cc(C#N)ccc1C(=O)Nc1cc(NC(=O)[C@H]2[C@H](c3ccc(F)c(C(F)(F)F)c3)C2(Cl)Cl)ccc1Cl` [F97, N-(2-Chloro-5-((1R,3R)-2,2-dichloro-3-(4-fluoro-3-(trifluoromethyl)phenyl)cyclopropane-1-carboxamido)phenyl)-4-cyano-2-methylbenzamide], the “activity against BAW (percent mortality, averaged over eight wells)” value was “exhibited activity”.
Consider `Cc1cc(C#N)ccc1C(=O)Nc1cc(NC(=O)[C@H]2[C@H](c3ccc(F)c(Br)c3)C2(Cl)Cl)ccc1Cl` [F98, N-(5-((1R,3R)-3-(3-Bromo-4-fluorophenyl)-2,2-dichlorocyclopropane-1-carboxamido)-2-chlorophenyl)-4-cyano-2-methylbenzamide], for which the “activity against BAW (percent mortality, averaged over eight wells)” value was “exhibited activity”.
As for `Cc1cc(C#N)ccc1C(=O)Nc1cc(NC(=O)[C@H]2[C@H](c3ccc(Cl)c(Cl)c3)C2(Cl)Cl)ccc1Cl` [F99, N-(2-Chloro-5-((1R,3R)-2,2-dichloro-3-(3,4-dichlorophenyl)cyclopropane-1-carboxamido)phenyl)-4-cyano-2-methylbenzamide], the “activity against BAW (percent mortality, averaged over eight wells)” value is reported as “exhibited activity”.
Same read-out and setting: to `CC(CC(=O)Nc1cc(NC(=O)[C@H]2[C@H](c3ccc(F)c(C(F)(F)F)c3)C2(Cl)Cl)ccc1Cl)C(F)(F)F` (stereo partly drawn) [F102, (1R,3R)-2,2-Dichloro-N-(4-chloro-3-(4,4,4-trifluoro-3-methylbutanamido)phenyl)-3-(4-fluoro-3-(trifluoromethyl)phenyl)cyclopropane-1-carboxamide] belongs “exhibited activity”; to `Nc1c(F)ccc(C(=O)Nc2cc(NC(=O)[C@H]3[C@H](c4ccc(F)c(C(F)(F)F)c4)C3(Cl)Cl)ccc2Cl)c1F` [F103, 3-amino-N-(2-chloro-5-((1R,3R)-2,2-dichloro-3-(4-fluoro-3-(trifluoromethyl)phenyl)cyclopropane-1-carboxamido)phenyl)-2,4-difluorobenzamide], “exhibited activity”; to `O=C(Nc1cc(NC(=O)[C@H]2[C@H](c3ccc(F)c(C(F)(F)F)c3)C2(Cl)Cl)ccc1Cl)c1ccc(F)c(NC(=O)C(F)F)c1F` [F104, N-(2-chloro-5-((1R,3R)-2,2-dichloro-3-(4-fluoro-3-(trifluoromethyl)phenyl)cyclopropane-1-carboxamido)phenyl)-3-(2,2-difluoroacetamido)-2,4-difluorobenzamide], “exhibited activity”.
Take `COCC(=O)Nc1c(F)ccc(C(=O)Nc2cc(NC(=O)[C@H]3[C@H](c4ccc(F)c(C(F)(F)F)c4)C3(Cl)Cl)ccc2Cl)c1F` [F105, N-(2-chloro-5-((1R,3R)-2,2-dichloro-3-(4-fluoro-3-(trifluoromethyl)phenyl)cyclopropane-1-carboxamido)phenyl)-2,4-difluoro-3-(2-methoxyacetamido)benzamide]: the “activity against BAW (percent mortality, averaged over eight wells)” value was “exhibited activity”.
Consider `O=C(Nc1cc(NC(=O)[C@@H]2[C@@H](c3ccc(F)c(C(F)(F)F)c3)C2(Cl)Cl)ccc1Cl)c1cnc(F)c(F)c1` [F110, N-(2-Chloro-5-((1S,3S)-2,2-dichloro-3-(4-fluoro-3-(trifluoromethyl)phenyl)cyclopropane-1-carboxamido)phenyl)-5,6-difluoronicotinamide], for which the “activity against BAW (percent mortality, averaged over eight wells)” value is given as “exhibited activity”.

A further assay has as its system Yellow Fever Mosquito (Aedes aegypti, AEDSAE) larvae. Description: Bioassay on yellow fever mosquito (YFM), 96-well plate larval assay. In kind it is in vivo. Particulars: 4000 ppm (master plate solution), about 1 day-old larvae, 3 days. The procedure:
Example B: Bioassays on Yellow Fever Mosquito (Aedes aegypti, AEDSAE) (“YFM”)
Master plates containing 400 μg of a molecule dissolved in 100 μL of dimethyl sulfoxide (DMSO) (equivalent to a 4000 ppm solution) are used. A master plate of assembled molecules contains 15 μL per well. To this plate, 135 μL of a 90:10 water/acetone mixture is added to each well. A robot (Biomek® NXP Laboratory Automation Workstation) is programmed to dispense 15 μL aspirations from the master plate into an empty 96-well shallow plate (“daughter” plate). There are 6 reps (“daughter” plates) created per master. The created “daughter” plates are then immediately infested with YFM larvae.
The day before plates are to be treated, mosquito eggs are placed in Millipore water containing liver powder to begin hatching (4 g into 400 mL). After the “daughter” plates are created using the robot, they are infested with 220 μL of the liver powder/larval mosquito mixture (about 1 day-old larvae). After plates are infested with mosquito larvae, a non-evaporative lid is used to cover the plate to reduce drying. Plates are held at room temperature for 3 days prior to grading. After 3 days, each well is observed and scored based on mortality.
Consider `COCC(=O)Nc1cccc(NC(=O)[C@H]2[C@H](c3cc(Cl)cc(Cl)c3)C2(Cl)Cl)c1` (racemic) [F4, trans-rac-2,2-Dichloro-3-(3,5-dichlorophenyl)-N-(3-(2-methoxyacetamido)phenyl)cyclopropane-1-carboxamide], for which the “activity against YFM (scored based on mortality)” value is given as “exhibited activity”.
In the case of `O=C(CCC(F)(F)F)Nc1cc(NC(=O)[C@H]2[C@H](c3cc(Cl)cc(Cl)c3)C2(Cl)Cl)ccc1Cl` (racemic) [F7, trans-rac-2,2-dichloro-N-(4-chloro-3-(4,4,4-trifluorobutanamido)phenyl)-3-(3,5-dichlorophenyl)cyclopropane-1-carboxamide], the “activity against YFM (scored based on mortality)” value is “exhibited activity”.
Same read-out and setting: next, `O=C(Nc1cc(NC(=O)[C@H]2[C@H](c3cc(Cl)cc(Cl)c3)C2(Cl)Cl)ccc1Cl)c1c(F)cccc1F` (racemic) [F25, trans-rac-N-(2-Chloro-5-(2,2-dichloro-3-(3,5-dichlorophenyl)cyclopropane-1-carboxamido)phenyl)-2,6-difluorobenzamide]: “exhibited activity”; `O=C(Nc1cc(NC(=O)[C@H]2[C@H](c3cc(Cl)cc(Cl)c3)C2(Cl)Cl)ccc1Cl)c1ccccn1` (racemic) [F28, trans-rac-N-(2-chloro-5-(2,2-dichloro-3-(3,5-dichlorophenyl)cyclopropane-1-carboxamido)phenyl)picolinamide]: “exhibited activity”.
On the same count and under the same terms, to `CCCC(=O)Nc1cc(NC(=O)[C@H]2[C@H](c3cc(Cl)cc(Cl)c3)C2(Cl)Cl)ccc1Cl` (racemic) [F45, trans-rac-N-(3-Butyramido-4-chlorophenyl)-2,2-dichloro-3-(3,5-dichlorophenyl)cyclopropane-1-carboxamide] belongs “exhibited activity”; to `O=C(CC1CC1)Nc1cccc(NC(=O)[C@H]2[C@H](c3cc(Cl)cc(Cl)c3)C2(Cl)Cl)c1F` [F21, (1R,3R)-2,2-Dichloro-N-(3-(2-cyclopropylacetamido)-2-fluorophenyl)-3-(3,5-dichlorophenyl)cyclopropane-1-carboxamide], “exhibited activity”.
